Assay: RP, Agilent ZORBAX Eclipse Plus C18, 150 × 2.1 mm, 3.5 µm, 40 °C, 0.3 mL/min, estimated dead time 1.1 min; A: water + 0.1% formic acid; B: acetonitrile + 0.1% formic acid; gradient (min/%B) 0/2 1/2 2/20 16.5/98 22/98
Conditions: stereoisomer not certain

SMILES | LC retention time
COC1C(O)CC(=O)OC(C)CC=CC=CC(OC2CCC(N(C)C)C(C)O2)C(C)CC(CC=O)C1OC1OC(C)C(OC2CC(C)(O)C(O)C(C)O2)C(N(C)C)C1O (stereo not drawn) | 5.77 min
CNC(=O)Oc1cccc2c1OC(C)(C)C2 | 9.75 min
COc1cc(Cc2cnc(N)nc2N)cc(OC)c1OC | 5.11 min
CCNc1nc(NC(C)(C)C)[nH]c(=O)n1 | 5.98 min
CCCC[N+](C)(CCCC)CCCC | 7.01 min
Nc1cccc2c1CN(C1CCC(=O)NC1=O)C2=O (stereo not drawn) | 5.24 min
CC12CCC3c4ccc(OS(=O)(=O)O)cc4CCC3C1CCC2=O (stereo not drawn) | 11.1 min
CC(C)CC(C)Nc1ccc(Nc2ccccc2)cc1 (stereo not drawn) | 9.19 min
c1ccc2sc(SSN3CCOCC3)nc2c1 | 13.8 min
CSc1ncnc2c1ncn2C1OC(CO)C(O)C1O (stereo not drawn) | 5.67 min
CCCCOCCOP(=O)(OCCOCCCC)OCCOCCCC | 14.6 min
c1ccc(P(=N[P+](c2ccccc2)(c2ccccc2)c2ccccc2)(c2ccccc2)c2ccccc2)cc1 | 12.3 min
CC12CC3CC(C)(C1)CC(N)(C3)C2 | 6.65 min
COc1cccc(C2(O)CCCCC2C[N+](C)(C)[O-])c1 (stereo not drawn) | 6.33 min
COC(=O)C1C2CC3c4[nH]c5cc(OC)ccc5c4CCN3CC2CC(OC(=O)c2cc(OC)c(OC)c(OC)c2)C1OC (stereo not drawn) | 8.6 min
O=c1[nH]c(=S)c2[nH]cnc2[nH]1 | 4.02 min
CC(C)CC(C)(O)C#CC(C)(O)CC(C)C (stereo not drawn) | 12.4 min
CCCCCCCCCCCCCC[N+](C)(C)CCCCCCCCCCCCCC | 16.9 min
c1ccc2c(c1)Nc1ccccc1S2 | 13.1 min
O=c1[nH]c(=O)c2ncn(C3OC(CO)C(O)C3O)c2[nH]1 (stereo not drawn) | 4.35 min

SMILES | LC retention time
CC(=O)C1(O)CCC2C3CC(C)C4=CC(=O)CCC4(C)C3CCC21C (stereo not drawn) | 12.5 min
CCCCCCCCCCCCCCCC[N+](C)(C)Cc1ccccc1 | 13.9 min
CCN(CC)C(=O)C(C)Oc1cccc2ccccc12 (stereo not drawn) | 12.6 min
CCCC[N+]1(C)CCCCC1 | 4.66 min
CC12CCC3c4ccc(O)cc4CCC3C1CCC2=O (stereo not drawn) | 11.2 min
Cn1cnc2nc[nH]c2c1=N | 2.36 min
Cc1ncsc1CCO | 4.25 min
CCCCCCCCCCCCCC[P+](CCCCCC)(CCCCCC)CCCCCC | 17.1 min
CCCCCCCCCCCCCN1CC(C)OC(C)C1 (stereo not drawn) | 10.4 min
CCCC[N+]1(C)CCCC1 | 4.27 min
COc1ccc(CCN(C)CCCC(C#N)(c2ccc(OC)c(OC)c2)C(C)C)cc1OC (stereo not drawn) | 8.54 min
CC(C)c1nc(CN(C)C(=O)NC(C(=O)NC(Cc2ccccc2)CC(O)C(Cc2ccccc2)NC(=O)OCc2cncs2)C(C)C)cs1 (stereo not drawn) | 12.7 min
O=c1[nH]cnc2c1cnn2C1OC(CO)C(O)C1O (stereo not drawn) | 4.31 min
Cc1cc2n[nH]nc2cc1C | 8.01 min
c1ccc(C[P+](c2ccccc2)(c2ccccc2)c2ccccc2)cc1 | 8.71 min
c1ccc([P+](Cc2ccccn2)(c2ccccc2)c2ccccc2)cc1 | 8.34 min
COc1ccc(Cc2cnc(N)nc2N)cc1OC | 4.97 min
CC(C)c1ccccc1OP(=O)(Oc1ccccc1)Oc1ccccc1 | 15.8 min
CNCC1CCCCC1(O)c1cccc(OC)c1 (stereo not drawn) | 6.25 min
NC(=O)c1ccc[n+](C2OC(COP(=O)(O)OP(=O)([O-])OCC3OC(n4cnc5c(N)ncnc54)C(O)C3O)C(O)C2O)c1 (stereo not drawn) | 2.09 min

SMILES | LC retention time
CCNc1nc(N)[nH]c(=O)n1 | 2.31 min
CC1(C)CC(O)CC(C)(C)N1CCO | 2.16 min
CCC1OC(=O)C(C)C(OC2CC(C)(OC)C(O)C(C)O2)C(C)C(OC2OC(C)CC(N(C)C)C2O)C(C)(O)CC(C)C(=O)C(C)C(O)C1(C)O (stereo not drawn) | 7.85 min
CCCCCCCCCCCC[N+](C)(C)CCCCCCCCCCCC | 15.3 min
CC(=O)CCCCn1c(=O)c2c(ncn2C)n(C)c1=O | 6.77 min
Nc1ncnc2c1ncn2CCOCP(=O)(O)O | 2.12 min
CCC(CC)Nc1c([N+](=O)[O-])cc(C)c(C)c1[N+](=O)[O-] | 16.2 min
CCC1OC(=O)C(C)C(OC2CC(C)(OC)C(O)C(C)O2)C(C)C(OC2OC(C)CC(N(C)C)C2O)C(C)(OC)CC(C)C(=O)C(C)C(O)C1(C)O (stereo not drawn) | 8.86 min
CC(C)COP(=O)(OCC(C)C)OCC(C)C | 14 min
COC1C(OC(C)=O)CC(=O)OC(C)CC=CC=CC(O)C(C)CC(CC=O)C1OC1OC(C)C(OC2CC(C)(O)C(OC(=O)CC(C)C)C(C)O2)C(N(C)C)C1O (stereo not drawn) | 8.87 min
CN(C)C1C(=O)C(C(N)=O)=C(O)C2(O)C(=O)C3=C(O)c4c(O)cccc4C(C)(O)C3CC12 (stereo not drawn) | 5.46 min
CCCCC[N+](CCCC)(CCCC)CCCC | 9.57 min
C=C1CC23CCC4C(C)(C(=O)OC5OC(CO)C(O)C(O)C5O)CCCC4(C)C2CCC1(OC1OC(CO)C(O)C(O)C1OC1OC(CO)C(O)C(O)C1O)C3 (stereo not drawn) | 8.07 min
CC(Cn1cnc2c(N)ncnc21)OCP(=O)(O)O (stereo not drawn) | 2.77 min
CC(C)(C)P(=O)(O)O | 4.63 min
CCNC(=O)C1CC(C)CCC1C(C)C (stereo not drawn) | 11.8 min
CCN1C=CN(C)C1 | 1.34 min
CCC1OC(=O)C(C)C(OC2CC(C)(OC)C(O)C(C)O2)C(C)C(OC2OC(C)CC(N(C)C)C2O)C(C)(O)CC(C)CN(C)C(C)C(O)C1(C)O (stereo not drawn) | 6.25 min
[O-]N(O)c1ccc(C[P+](c2ccccc2)(c2ccccc2)c2ccccc2)cc1 | 8.52 min

Continued, values first:

LC retention time | SMILES
7.08 min | CCN(Cc1cccc(S(=O)(=O)O)c1)c1ccc(C(=C2C=CC(=[N+](CC)Cc3cccc(S(=O)(=O)O)c3)C=C2)c2ccccc2S(=O)(=O)[O-])cc1
6.77 min | Cc1cc(NS(=O)(=O)c2ccc(NO)cc2)no1
8.7 min | CC(C)(C(=O)O)c1ccc(C(O)CCCN2CCC(C(O)(c3ccccc3)c3ccccc3)CC2)cc1 (stereo not drawn)
8.54 min | Cc1ccc(C(=O)O)cc1
5.9 min | c1ccc(-c2nc3ccccc3[nH]2)cc1
7.1 min | CC(=O)c1ccc(C(=O)O)cc1
5.9 min | O=C(CO)Nc1ccccc1
14.2 min | O=C1c2ccccc2C(=O)C1c1ccccc1
4.42 min | CN(C)Cc1ccccc1
10 min | CC(C)(C(=O)O)c1ccc(C(=O)CCCN2CCC(OC(c3ccccc3)c3ccccc3)CC2)cc1
7.56 min | CNCCOC(c1ccccc1)c1ccccc1
7.36 min | CN1C(C(=O)Nc2ccccn2)=C(O)c2sccc2S1(=O)=O
4.71 min | CC1(C)SC2C(NC(=O)C(N)c3ccc(O)cc3)C(=O)N2C1C(=O)O (stereo not drawn)
11.1 min | Cc1ccccc1NC(=O)Nc1ccccc1C
8.67 min | CC12CCC3c4ccc(O)cc4CCC3C1CC(O)C2=O (stereo not drawn)
4.07 min | CN(C)c1cccc(O)c1
5.77 min | CCN(CC)CC(=O)Nc1c(C)cccc1C
11.3 min | CCCCCCCCCCC(C(=O)c1ccc(OC)cc1)[N+](C)(C)C (stereo not drawn)
5.82 min | CC(C)NC(=O)NS(=O)(=O)c1cnccc1Nc1cccc(CO)c1
4.77 min | CNCc1ccc(CSCCNC(=C[N+](=O)[O-])NC)o1
10.8 min | CCOCCOC(=O)Nc1ccc(C)cc1
7.1 min | OCC[P+](c1ccccc1)(c1ccccc1)c1ccccc1
8.47 min | COC(=O)Nc1ccccc1
8.21 min | CC(C(=O)O)c1ccc(CC(C)(C)O)cc1 (stereo not drawn)
9.31 min | CC(C)CC[P+](c1ccccc1)(c1ccccc1)c1ccccc1

LC retention time | SMILES
9.3 min | C=C(OCC)[P+](c1ccccc1)(c1ccccc1)c1ccccc1
6.23 min | O=c1[nH]sc2ccccc12
4.55 min | CC(C)(C)NCC(O)c1cc(O)cc(O)c1 (stereo not drawn)
8.09 min | CCOC(=O)C(C)[P+](c1ccccc1)(c1ccccc1)c1ccccc1 (stereo not drawn)
13.3 min | CC12CCC3c4ccc(OCc5ccccc5)cc4CCC3C1CC(O)C2O (stereo not drawn)
7.93 min | C#CC[P+](c1ccccc1)(c1ccccc1)c1ccccc1
8.07 min | O=c1c(O)c(-c2ccc(O)c(O)c2)oc2cc(O)cc(O)c12
6.97 min | CCN(CC)C(=O)c1cccc(CO)c1
6.74 min | CC(=O)Nc1ccccc1
5.42 min | CCNCC(O)COc1ccc(CCOC)cc1 (stereo not drawn)
8.34 min | CCNC(=O)c1cccc(C)c1
14.7 min | O=C1c2ccccc2C(=O)C1c1nc2ccccc2cc1O
6.15 min | Cc1ccc(NC(=O)c2ccc(CN3CCN(C)CC3)cc2)cc1Nc1nccc(-c2cccnc2)n1
7.62 min | CCOc1ccc(NC(C)=O)cc1
7.92 min | NC(=O)N1c2ccccc2C=Cc2ccc(O)cc21
8.32 min | COCCOC(=O)Nc1ccc(C)c(NC(=O)OCCOC)c1
5.76 min | COC(=O)C(Cc1ccccc1)NC(=O)C(N)CC(=O)O (stereo not drawn)
9.02 min | CC(C)=CC[P+](c1ccccc1)(c1ccccc1)c1ccccc1
5.82 min | COC(=O)NN=Cc1c[n+]([O-])c2ccccc2[n+]1[O-]
5.13 min | CC(C)(C)NCC(O)COc1cccc2c1CC(O)C(O)C2 (stereo not drawn)
13.8 min | CCC(CCC(C)O)COC(=O)C(C#N)=C(c1ccccc1)c1ccccc1 (stereo not drawn)
8.82 min | CCP(=O)(c1ccccc1)c1ccccc1
2.36 min | CCC(C)C(N)C(=O)O (stereo not drawn)
4.75 min | NCC(O)COc1ccccc1 (stereo not drawn)
